Data: paper PMC9569450, “Dual Effect of Tryptamine on Prostate Cancer Cell Growth Regulation: A Pilot Study” (International Journal of Molecular Sciences, 2022)

How the values were obtained:
PC-3 cells [1] = assay: Transwell migration assay, PC-3; assay type: cell-based, human; conditions: 24 h
Description: Cell migration was evaluated using 8-μm transwell filters (Costar Corning, Schiphol-Rijk, The Netherlands). Cells at a density of 5 × 10^4 were seeded to the upper chamber, and the chamber was filled with FBS-free medium. Cells were incubated overnight to allow for adherence; then, the lower chamber was replaced with 10% FBS medium as a chemo-attractant. Following a 24 h incubation, non-migrating cells on the upper surface of the insert membrane were gently removed by cotton swabs and migrated cells on the lower surface of the insert membrane were fixed by 4% paraformaldehyde and stained with 0.1% crystal violet for 20 min. Migrated cells on each membrane were photographed and counted at 100× magnification field at six random fields.

PC-3 cells [2] = assay: UPLC-HRMS cell metabolomics of tryptamine-treated PC-3 cells; assay type: cell-based, human
Description: The cells were seeded in 10 cm Petri dishes at a density of 1 × 10^6 cells/dish. After incubation overnight for adherence, cells were subjected to treatment with tryptamine (0.3 mM) in FBS-free medium, and control samples were treated with FBS-free medium. […] For cellular metabolite extraction, cells were first washed with PBS for three times, then 8 mL extraction solvent (methanol: acetonitrile: 0.5 M formic acid, 2:2:1 v/v/v) was added for quenching and cell lysis. The mixture was vortexed and sonicated on ice for 15 min to extract metabolites, and then centrifuged at 13,000 rpm for 10 min at 4 °C. The supernatant was collected and dried under vacuum. Before analysis, the sample was reconstituted in 100 μL H2O.
The chromatographic method involved elution with water with 0.1% acetic acid (A) and acetonitrile (B). The gradient program of cell metabolomics was as follows: 0–1 min 98–99% A, 1–3 min 2–30% A, 3–8 min 30–50% A, 8–10 min 50–95% A, 10–15 min 95–95% A. The flow rate was constant at 0.3 mL/min. […] The column was maintained at 35 °C. After each run, the gradient was re-equilibrated to its initial conditions over 6 min. Sample injection volume was 10 μL. The main mass spectrometer parameters were set as follows: capillary temperature 300 °C; capillary voltage and tube lens 20 V and 35 V, respectively, for positive mode, and 40 V and 80 V, respectively, for negative mode; spray voltage 4.0 kV in positive mode, and 2.5 kV and 2.8 kV in negative mode for serum and cell metabolite profiling, respectively; auxiliary gas, sheath gas and sweep gas flow rate 10, 40, and 0 arbitrary units, respectively. Data were acquired in the m/z range of 50–1000. The resolving power was 60,000 at m/z 195. Ultra-high-purity argon (≥99.999%) was used as the collision gas in UPLC–MS/MS experiments, and normalized collision voltages were in the range of 15–55 V.
Raw data was pre-processed using Progenesis QI software version 2.4 (Nonlinear Dynamics, Waters Corporation, Milford, CT, USA), which included peak picking and alignment. A data matrix table containing metabolic peak identity (retention time (Rt and m/z pair)) and peak abundances in samples was obtained. We used our previously designed FORTRAN program for data post-processing, including analyses of adducts, in-source fragments and chloride isotopic ions, contaminant and artefact ion removal, QC-based scaling, and normalization. Principal components analysis (PCA) and oPLS-DA (orthogonal partial least squares-discriminant analysis) were applied for sample classification using the PLS Toolbox software (version 8.9.1, Eigenvector Research, Inc., Manson, WA, USA) based on Matlab R2021a (version 9.10.0, MathWorks, Natick, MA, USA). Differential metabolites were identified with p-value < 0.05 and variance importance in projection (VIP) value greater than 1. The metabolites were identified based on accurate mass matching to theoretical values within a 2 mDa tolerance and MS/MS matching with spectral data in Human Metabolome Database (HMDB) and/or manual analysis of MS/MS spectra (Figure S4). MetaboAnalyst 5.0 was used for metabolic pathway and network analyses.

A549 cells = assay: MTT cell proliferation assay, A549; assay type: cell-based; conditions: Homo sapiens, A549, 48 h treatment in FBS-free medium, read-out: IC50 Value (Mean ± SD mM) A549
Description: PC-3, LNCaP, RWPE-1, HepG2, A549, and PANC-1 cells were purchased from the National Collection of Authenticated Cell Cultures (Shanghai, China). […] All the above cell cultures were supplied with 10% fetal bovine serum and 1% penicillin-streptomycin. RWPE-1 cells were cultured in keratinocyte serum-free medium (K-SFM, Gibco, New York, NY, USA) supplemented with 50 mg/L bovine pituitary extract and 5 μg/L epidermal growth factor (EGF). All cell lines were grown in a humidified atmosphere of 5% CO2 at 37 °C.
Cells were seeded in 100 μL complete medium in a 96-well plate, at a density of 10,000 cells/well for LNCaP and 5000 cells/well for other cells. Cells were pre-incubated for 24 h to allow for adherence before removal of complete medium and treatment with various concentrations of compounds in fetal bovine serum (FBS)-free medium for 48 h. After treatment, 20 μL/well MTT (5 mg/mL) was added and incubated for 3–4 h at 37 °C, and then 100 μL/well DMSO was added for MTT assay. The plate was shaken on an orbital shaker for 10 min. Absorbance was measured using a microplate reader at 492 nm for the MTT assay (performed in triplicates). Cell viability was normalized to control. Half inhibitory concentration (IC50) was calculated by SPSS Statistics 17.0. […] The experiments were independently repeated two to three times.

PC-3 cells [3] = assay: Cell viability of PC-3 cells after 24 h (Figure S1); assay type: cell-based, human
Description: Figure S1. Cell viability of PC-3 cell treated with various concentrations of tryptamine […]
Figure S2. Liver function test results and effects of tryptamine and 3-HAA treatments on the tumor growth of PC-3 xenograft mouse model. (A and B) Appearance and aspartate aminotransferase (AST, U/L) value of the liver of PC-3 xenograft mice received intraperitoneal administration of tryptamine (80 mg/kg, n = 6) and intratumoral administration of tryptamine (1 mg/100 mm3, n = 5), respectively. Size of the tumors of PC-3 xenograft mice received intratumoral administration of (C and E) tryptamine (1 mg/100 mm3) and 3-HAA (200 mg/kg) and intraperitoneal administration of (D and F) tryptamine (80 mg/kg) and 3-HAA (200 mg/kg), respectively.
Figure S3. Heatmap overview of altered PC-3 cell metabolic profiles in LC-MS (A) positive and (B) negative ion modes before and after tryptamine treatment.
Figure S4. MS/MS analyses of the discriminant metabolites in panels.
Figure S1. Cell viability of PC-3 cell treated with various concentrations of tryptamine for 24h. […]

[4] = 0.3 mM, treatment/control ratio, negative = decreased

SMILES: NCCc1c[nH]c2ccccc12 [Tryptamine]
- migrated cells reduced by (PC-3 cells [1]; PC-3, 0.075 mM): 22%
- percentage of migrated cells (PC-3 cells [1]; PC-3, 0.15 mM): 58%
- percentage of migrated cells (PC-3 cells [1]; PC-3, 0.3 mM): 23%
- Fold Change of ketoleucine (PC-3 cells [2]; 0.3 mM, treatment/control ratio): 0
- Fold Change of arginine (PC-3 cells [2]; [4]): −1.9
- Fold Change of aspartic acid (PC-3 cells [2]; [4]): −3.2
- Fold Change of creatine (PC-3 cells [2]; [4]): −2.0
- Fold Change of pantothenic acid (PC-3 cells [2]; [4]): −1.6
- Fold Change of proline (PC-3 cells [2]; [4]): −2.0
- Fold Change of spermidine (PC-3 cells [2]; [4]): −2.1
- Fold Change of spermine (PC-3 cells [2]; [4]): −2.1
- Fold Change of 5-HT (PC-3 cells [2]; 0.3 mM, treatment/control ratio, positive = increased): 1.4 × 10^3
- aspartic acid, fold decrease compared to the control group (PC-3 cells [2]; tryptamine treated group): 3.2 fold
- IC50 (A549 cells): 0.46 ± 0.01 mM
- viability at 300 µM (PC-3 cells [3]; Homo sapiens, PC-3, 0.3 mM, read-out: percentage of viable cells): 75%
- cell viability compared to the control group (PC-3 cells [3]; PC-3, 0.15 mM): no significant change in cell viability
